# Source: PubChem BioAssay (NCI)
#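 Where inhibition never reached the appropriate level, the endpoint shown equals the highest concentration tested. Otherwise, values were interpolated linearly from a five-concentration, 48-hour dose response in 96-well plates. TGI: total growth inhibition.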
# Test system: PC-3 prostate
# Assay: DTP human tumour cell line panel, 48 h
row,Compound,TGI
1,CC(=O)O[C@H]1CC[C@@]2(C)C(=CC[C@H]3[C@@H]4C/C(=C\c5ccc(N(C)C)cc5)[C@H](OC(C)=O)[C@@]4(C)CC[C@@H]32)C1,16.7 µM

# Test system: T-47D breast
# Assay: DTP human tumour cell line panel, 48 h
row,Compound,TGI
1,O=C(N(O)c1ccccc1Cl)C(O)(c1ccccc1)c1ccccc1,> 100 µM
2,Cn1c2c(c3ccccc31)CCN1C(=O)CN(C(=O)C3CCCCC3)CC21 (stereo unspecified),> 100 µM
3,CCCC(=O)N1CCN(c2ccc3c(c2)OC(C)O3)CC1 (stereo unspecified),> 100 µM
4,COC(=O)C1=C(O)c2ccc(Cl)cc2S(=O)(=O)N1C,> 100 µM
5,CCOC(=O)[C@H](C)OC(=O)[C@@](C)(NC(=O)c1ccccc1C(=O)OC)[C@@H]1NC=C(C(=O)OC)CS1,> 100 µM
6,CC(C)=CCC/C(C)=C/CC/C(C)=C/CC(CO)N(C)CC/C=C(\C)CCC=C(C)C (stereo unspecified),10.7 µM
7,C=C1CC/C=C(\C)CCC[C@H](C)[C@@H](O)[C@@H]2OC(=O)C(=C)[C@@H]2C[C@H]1O,47.1 µM
8,Cn1c2ccccc2c(=O)c2cccc(C(=O)NC(CS)C(=O)O)c21 (stereo unspecified),> 100 µM
9,CCOC(=O)c1sc2c(c1OC(=O)c1ccc(OC)cc1)c(=O)n(-c1ccccc1)c(=S)n2-c1ccccc1,> 100 µM
10,COc1ccc(-c2cc3ccccc3oc2=O)cc1OC,> 100 µM
11,O=C(Cn1c(-c2ccccc2)cc2ccccc21)N1CCCC1,> 100 µM
12,CC1CN=C(N(C(=O)Nc2ccc(Cl)c(Cl)c2)c2ccccc2)S1 (stereo unspecified),> 100 µM
13,COC(=O)NC(C(F)(F)F)(C(F)(F)F)P1(=O)OCCCO1,84.3 µM
14,CCOC(=O)NNC(=O)NCCCCNC(=O)NNC(=O)OCC,> 100 µM
15,CC(C)(C)OC/C=C(/CO)[C@@H]1C=C[C@H](O)C1,> 100 µM
16,Nc1ccn([C@H]2CO[C@@H](CO)[C@@H]2O)c(=O)n1,> 100 µM
17,O=C(CC(C(=O)c1ccsc1)c1ccccc1)c1ccccc1 (stereo unspecified),> 100 µM
18,CC(C)C(C/C=C1\CC(CO)(COC(=O)C(C)(C)C)OC1=O)C(C)C (stereo unspecified),34.9 µM
19,COC(C)(C)OCCN1CCN(CCN2C3=C(C=C(C(C)=O)C3)Sc3ccccc32)CC1,> 100 µM
20,CC(=O)O[C@H]1CC[C@@]2(C)C(=CC[C@H]3[C@@H]4C/C(=C\c5ccc(N(C)C)cc5)[C@H](OC(C)=O)[C@@]4(C)CC[C@@H]32)C1,76.8 µM

# Test system: MDA-N
# Assay: DTP human tumour cell line panel, 48 h
row,Compound,TGI
1,O=C(N(O)c1ccccc1Cl)C(O)(c1ccccc1)c1ccccc1,> 100 µM
2,Cn1c2c(c3ccccc31)CCN1C(=O)CN(C(=O)C3CCCCC3)CC21 (stereo unspecified),> 100 µM
3,CCCC(=O)N1CCN(c2ccc3c(c2)OC(C)O3)CC1 (stereo unspecified),> 100 µM
4,COC(=O)C1=C(O)c2ccc(Cl)cc2S(=O)(=O)N1C,> 100 µM
5,CCOC(=O)[C@H](C)OC(=O)[C@@](C)(NC(=O)c1ccccc1C(=O)OC)[C@@H]1NC=C(C(=O)OC)CS1,64.6 µM
6,CC(C)=CCC/C(C)=C/CC/C(C)=C/CC(CO)N(C)CC/C=C(\C)CCC=C(C)C (stereo unspecified),12.4 µM
7,C=C1CC/C=C(\C)CCC[C@H](C)[C@@H](O)[C@@H]2OC(=O)C(=C)[C@@H]2C[C@H]1O,35.9 µM
8,Cn1c2ccccc2c(=O)c2cccc(C(=O)NC(CS)C(=O)O)c21 (stereo unspecified),> 100 µM
9,CCOC(=O)c1sc2c(c1OC(=O)c1ccc(OC)cc1)c(=O)n(-c1ccccc1)c(=S)n2-c1ccccc1,> 100 µM
10,COc1ccc(-c2cc3ccccc3oc2=O)cc1OC,> 100 µM
11,O=C(Cn1c(-c2ccccc2)cc2ccccc21)N1CCCC1,> 100 µM
12,CC1CN=C(N(C(=O)Nc2ccc(Cl)c(Cl)c2)c2ccccc2)S1 (stereo unspecified),> 100 µM
13,COC(=O)NC(C(F)(F)F)(C(F)(F)F)P1(=O)OCCCO1,70.3 µM
14,CCOC(=O)NNC(=O)NCCCCNC(=O)NNC(=O)OCC,> 100 µM
15,CC(C)(C)OC/C=C(/CO)[C@@H]1C=C[C@H](O)C1,> 100 µM
16,Nc1ccn([C@H]2CO[C@@H](CO)[C@@H]2O)c(=O)n1,> 100 µM
17,O=C(CC(C(=O)c1ccsc1)c1ccccc1)c1ccccc1 (stereo unspecified),> 100 µM
18,CC(C)C(C/C=C1\CC(CO)(COC(=O)C(C)(C)C)OC1=O)C(C)C (stereo unspecified),17.6 µM
19,COC(C)(C)OCCN1CCN(CCN2C3=C(C=C(C(C)=O)C3)Sc3ccccc32)CC1,36.5 µM
20,CC(=O)O[C@H]1CC[C@@]2(C)C(=CC[C@H]3[C@@H]4C/C(=C\c5ccc(N(C)C)cc5)[C@H](OC(C)=O)[C@@]4(C)CC[C@@H]32)C1,36 µM

# Test system: K-562 leukemia
# Assay: DTP human tumour cell line panel, 48 h
row,Compound,TGI
1,O=C(N(O)c1ccccc1Cl)C(O)(c1ccccc1)c1ccccc1,71.5 µM
2,Cn1c2c(c3ccccc31)CCN1C(=O)CN(C(=O)C3CCCCC3)CC21 (stereo unspecified),> 100 µM
3,CCCC(=O)N1CCN(c2ccc3c(c2)OC(C)O3)CC1 (stereo unspecified),> 100 µM
4,COC(=O)C1=C(O)c2ccc(Cl)cc2S(=O)(=O)N1C,> 100 µM
5,CCOC(=O)[C@H](C)OC(=O)[C@@](C)(NC(=O)c1ccccc1C(=O)OC)[C@@H]1NC=C(C(=O)OC)CS1,> 100 µM
6,CC(C)=CCC/C(C)=C/CC/C(C)=C/CC(CO)N(C)CC/C=C(\C)CCC=C(C)C (stereo unspecified),3.7 µM
7,C=C1CC/C=C(\C)CCC[C@H](C)[C@@H](O)[C@@H]2OC(=O)C(=C)[C@@H]2C[C@H]1O,> 38.8 µM
8,Cn1c2ccccc2c(=O)c2cccc(C(=O)NC(CS)C(=O)O)c21 (stereo unspecified),> 100 µM
9,CCOC(=O)c1sc2c(c1OC(=O)c1ccc(OC)cc1)c(=O)n(-c1ccccc1)c(=S)n2-c1ccccc1,> 100 µM
10,COc1ccc(-c2cc3ccccc3oc2=O)cc1OC,> 100 µM
11,COC(=O)NC(C(F)(F)F)(C(F)(F)F)P1(=O)OCCCO1,> 100 µM
12,CCOC(=O)NNC(=O)NCCCCNC(=O)NNC(=O)OCC,> 100 µM
13,CC(C)(C)OC/C=C(/CO)[C@@H]1C=C[C@H](O)C1,> 100 µM
14,Nc1ccn([C@H]2CO[C@@H](CO)[C@@H]2O)c(=O)n1,> 100 µM
15,O=C(CC(C(=O)c1ccsc1)c1ccccc1)c1ccccc1 (stereo unspecified),> 100 µM
16,CC(C)C(C/C=C1\CC(CO)(COC(=O)C(C)(C)C)OC1=O)C(C)C (stereo unspecified),44.9 µM
17,COC(C)(C)OCCN1CCN(CCN2C3=C(C=C(C(C)=O)C3)Sc3ccccc32)CC1,32.2 µM
18,CC(=O)O[C@H]1CC[C@@]2(C)C(=CC[C@H]3[C@@H]4C/C(=C\c5ccc(N(C)C)cc5)[C@H](OC(C)=O)[C@@]4(C)CC[C@@H]32)C1,> 100 µM

# Test system: CCRF-CEM leukemia
# Assay: DTP human tumour cell line panel, 48 h
row,Compound,TGI
1,O=C(N(O)c1ccccc1Cl)C(O)(c1ccccc1)c1ccccc1,41 µM
2,Cn1c2c(c3ccccc31)CCN1C(=O)CN(C(=O)C3CCCCC3)CC21 (stereo unspecified),> 100 µM
3,CCCC(=O)N1CCN(c2ccc3c(c2)OC(C)O3)CC1 (stereo unspecified),> 100 µM
4,COC(=O)C1=C(O)c2ccc(Cl)cc2S(=O)(=O)N1C,> 100 µM
5,CCOC(=O)[C@H](C)OC(=O)[C@@](C)(NC(=O)c1ccccc1C(=O)OC)[C@@H]1NC=C(C(=O)OC)CS1,63.9 µM
6,CC(C)=CCC/C(C)=C/CC/C(C)=C/CC(CO)N(C)CC/C=C(\C)CCC=C(C)C (stereo unspecified),> 25.2 µM
7,CCOC(=O)c1sc2c(c1OC(=O)c1ccc(OC)cc1)c(=O)n(-c1ccccc1)c(=S)n2-c1ccccc1,> 100 µM
8,COc1ccc(-c2cc3ccccc3oc2=O)cc1OC,> 100 µM
9,CC1CN=C(N(C(=O)Nc2ccc(Cl)c(Cl)c2)c2ccccc2)S1 (stereo unspecified),> 100 µM
10,COC(=O)NC(C(F)(F)F)(C(F)(F)F)P1(=O)OCCCO1,> 100 µM
11,CCOC(=O)NNC(=O)NCCCCNC(=O)NNC(=O)OCC,> 100 µM
12,CC(C)(C)OC/C=C(/CO)[C@@H]1C=C[C@H](O)C1,> 100 µM
13,Nc1ccn([C@H]2CO[C@@H](CO)[C@@H]2O)c(=O)n1,> 100 µM
14,O=C(CC(C(=O)c1ccsc1)c1ccccc1)c1ccccc1 (stereo unspecified),> 100 µM
15,CC(C)C(C/C=C1\CC(CO)(COC(=O)C(C)(C)C)OC1=O)C(C)C (stereo unspecified),42.7 µM
16,COC(C)(C)OCCN1CCN(CCN2C3=C(C=C(C(C)=O)C3)Sc3ccccc32)CC1,32.4 µM

# Test system: SK-MEL-5 melanoma
# Assay: DTP human tumour cell line panel, 48 h
row,Compound,TGI
1,O=C(N(O)c1ccccc1Cl)C(O)(c1ccccc1)c1ccccc1,> 100 µM
2,Cn1c2c(c3ccccc31)CCN1C(=O)CN(C(=O)C3CCCCC3)CC21 (stereo unspecified),> 100 µM
3,CCCC(=O)N1CCN(c2ccc3c(c2)OC(C)O3)CC1 (stereo unspecified),> 100 µM
4,COC(=O)C1=C(O)c2ccc(Cl)cc2S(=O)(=O)N1C,> 100 µM
5,CCOC(=O)[C@H](C)OC(=O)[C@@](C)(NC(=O)c1ccccc1C(=O)OC)[C@@H]1NC=C(C(=O)OC)CS1,> 100 µM
6,CC(C)=CCC/C(C)=C/CC/C(C)=C/CC(CO)N(C)CC/C=C(\C)CCC=C(C)C (stereo unspecified),23.2 µM
7,C=C1CC/C=C(\C)CCC[C@H](C)[C@@H](O)[C@@H]2OC(=O)C(=C)[C@@H]2C[C@H]1O,22.6 µM
8,Cn1c2ccccc2c(=O)c2cccc(C(=O)NC(CS)C(=O)O)c21 (stereo unspecified),> 100 µM
9,CCOC(=O)c1sc2c(c1OC(=O)c1ccc(OC)cc1)c(=O)n(-c1ccccc1)c(=S)n2-c1ccccc1,> 100 µM
10,COc1ccc(-c2cc3ccccc3oc2=O)cc1OC,> 100 µM
11,O=C(Cn1c(-c2ccccc2)cc2ccccc21)N1CCCC1,> 100 µM
12,CC1CN=C(N(C(=O)Nc2ccc(Cl)c(Cl)c2)c2ccccc2)S1 (stereo unspecified),50.8 µM
13,COC(=O)NC(C(F)(F)F)(C(F)(F)F)P1(=O)OCCCO1,40.6 µM
14,CCOC(=O)NNC(=O)NCCCCNC(=O)NNC(=O)OCC,> 100 µM
15,Nc1ccn([C@H]2CO[C@@H](CO)[C@@H]2O)c(=O)n1,> 100 µM
16,O=C(CC(C(=O)c1ccsc1)c1ccccc1)c1ccccc1 (stereo unspecified),> 100 µM
